The values below are quoted from earlier work in patent US11648313B2, “Multimodal therapy for cancer cell destruction” (Southeast Missouri State University, priority 2015, dated 2023).

Molecules are shown by their SMILES.

For series [1], the system named is NF-kB. To be noted: neuroblastoma cells.
The target of series [2] is FAK (Homo sapiens, UniProt Q05397).
Chain of FAK (Q05397 whole entry): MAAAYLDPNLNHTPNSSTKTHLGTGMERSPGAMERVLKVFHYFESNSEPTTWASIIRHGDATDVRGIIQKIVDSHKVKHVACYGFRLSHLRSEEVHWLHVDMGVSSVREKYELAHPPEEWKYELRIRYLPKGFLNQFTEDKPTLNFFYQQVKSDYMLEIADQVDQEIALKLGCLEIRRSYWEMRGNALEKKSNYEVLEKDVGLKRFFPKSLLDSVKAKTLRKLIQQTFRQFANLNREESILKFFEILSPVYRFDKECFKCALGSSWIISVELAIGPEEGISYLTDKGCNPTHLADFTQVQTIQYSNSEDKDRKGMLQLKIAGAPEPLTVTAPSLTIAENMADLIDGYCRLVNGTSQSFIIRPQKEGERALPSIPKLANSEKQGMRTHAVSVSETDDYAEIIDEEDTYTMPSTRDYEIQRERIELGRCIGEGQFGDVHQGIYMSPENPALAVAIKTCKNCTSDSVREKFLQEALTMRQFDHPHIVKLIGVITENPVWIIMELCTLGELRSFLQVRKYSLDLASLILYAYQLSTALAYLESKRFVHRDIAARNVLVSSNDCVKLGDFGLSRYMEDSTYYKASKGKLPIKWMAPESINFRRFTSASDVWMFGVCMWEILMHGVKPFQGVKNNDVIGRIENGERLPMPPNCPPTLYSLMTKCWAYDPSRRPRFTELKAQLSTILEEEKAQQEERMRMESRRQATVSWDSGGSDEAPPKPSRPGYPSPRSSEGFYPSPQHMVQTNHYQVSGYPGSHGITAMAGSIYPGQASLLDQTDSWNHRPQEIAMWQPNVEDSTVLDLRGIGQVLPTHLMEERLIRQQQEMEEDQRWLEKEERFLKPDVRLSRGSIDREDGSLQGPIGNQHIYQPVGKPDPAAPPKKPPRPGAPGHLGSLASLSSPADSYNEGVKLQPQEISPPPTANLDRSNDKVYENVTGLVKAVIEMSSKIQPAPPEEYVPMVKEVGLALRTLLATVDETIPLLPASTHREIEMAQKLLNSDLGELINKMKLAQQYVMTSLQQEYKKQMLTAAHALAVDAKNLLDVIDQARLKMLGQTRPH

With `COc1cccc2c1C(=O)c1c(O)c3c(c(O)c1C2=O)C[C@@](O)(C(=O)CO)C[C@@H]3O[C@H]1C[C@H](N)[C@H](O)[C@H](C)O1` [doxorubicin], the NF-kB activation result in series [1] was “trigger NF-kB activation”. For the molecule `COc1cc([C@@H]2c3cc4c(cc3[C@@H](O[C@@H]3O[C@@H]5CO[C@@H](C)O[C@H]5[C@H](O)[C@H]3O)[C@H]3COC(=O)[C@H]23)OCO4)cc(OC)c1O` [VP16], in series [1], the NF-kB activation entry was “trigger NF-kB activation”. `Cl.Cl.Cl.Cl.Nc1cc(N)c(N)cc1N` [Y15]: the water solubility result is on record as “adequate water solubility”. In series [2], the “effect of FAK inhibition on cell survival, apoptosis, cell cycle” value is “decreased cell survival, increased apoptosis, and G2 cell cycle arrest”. `CNC(=O)c1ccccc1Nc1nc(Nc2ccc(N3CCOCC3)cc2OC)ncc1Cl` [NVP-TAE 226]: the water solubility entry is “adequate water solubility”. For the same molecule, the “effect of FAK inhibition on cell survival, apoptosis, cell cycle” value in series [2] is “decreased cell survival, increased apoptosis, and G2 cell cycle arrest”.
